Assay results published in publication PMC8121762, “Peptidomics of enteroendocrine cells and characterisation of potential effects of a novel preprogastrin derived-peptide on glucose tolerance in lean mice” (Peptides, 2021).
Where two headings read alike, the source gives them in different places. Where a SMILES comes first, the peptide text is derived from it. [ ]: non-standard residue; d: D form. pGlu = O=C1CC[C@@H](C(=O)O)N1

Key:
[1] = Pharmacokinetics studies in mice (i.v. and s.c. bolus, plasma LC–MS/MS); format: in vivo; details: mouse; for AUC: tail vein blood over 90 min
Protocol: Male and female mice aged between 12–18 weeks old were used for these studies. Gast p59−79, ChgA 435−462a and Sst 25−36 were administered intravenously (i.v.) at 1 mg/kg and subcutaneously (s.c.) at various doses (see Fig. 7A, B and C for details on specific doses for each peptide). Blood samples were collected using EDTA coated microvette tubes (Starsedt, Leicester, UK) from the tail vein at various time points over 90 min. Blood was centrifuged (2000 g, 10 min, 4 °C) and the plasma separated. A 0.1 M sodium citrate (Sigma-Aldrich) buffer (adjusted to pH 3 with citric acid (Sigma-Aldrich)) was added to the plasma at a dilution of 1 in 10 to prevent degradation of Gast p59−79 and Sst 25−36. Plasma was stored -70 °C till extraction.
On the day of analysis, plasma samples were thawed, spiked with a stable isotope labelled version of Gast p59−79, ChgA 435−462a or Sst 25−36, and crashed with 200 μL 80 % ACN. After centrifuging, supernatants were removed and dried under gaseous nitrogen at 40 °C using a SPE Dry evaporator system (Biotage, Upsalla, Sweden). SPE was performed as described previously.
A Xevo TQ-XS triple quadrupole mass spectrometer coupled to H-class Aquity UPLC system enabled high throughput and targeted sample analysis. The column used was a Waters HSS T3 2.1 × 50 mm column at 60 °C and flowing at 350 μL/min. LC–MS/MS analysis was performed using positive ESI with a spray voltage of 3 kV, desolvation temperature 600°C, gas flow rate 1000 L/h and cone voltage of 40 V. Solvent A was 0.1 % FA in water (v/v) and Solvent B was 0.1 % FA in ACN (v/v). Each sample (40 μL per sample) was injected onto the column for 30 s with starting conditions set at 90 % A and 10 % B before the % B was increased to 50 % over the course of 3.5 min. The column was flushed with 90 % B for 1.5 min before initial conditions were restored. Total run time per sample was 5.5 min. Table 1 details the specifications used to quantify Gast p59−79, ChgA 435−462a, Sst 25−36 and their stable isotope labelled versions on a Xevo TQ-XS mass spectrometer.
Raw data files obtained on the Xevo TQ-XS triple quadrupole mass spectrometer were analysed using TargetLynx XS v4.2 software (Waters). Peptides were quantified by integrating the corresponding peaks and normalised to an internal standard if available. For pharmacokinetics studies, the concentration of peptide was estimated by comparing against a calibration line. SAAM II v2.2.1 (The Epsilon Group) with a Rosenbrock integrator and no maximum number of iterations was used to create a model for Gast p59−79 distribution and elimination upon single dose administration to mice.

[2] = system: phosphorylated-AKT (pAKT); assay: Post-mortem assessment of insulin sensitivity (pAKT / total-AKT, MSD kits); format: in vivo, mouse; details: DIO mice, 28 days after pump surgery, 15 min after 0.75 U/kg insulin challenge; treatment vs vehicle
Protocol: At the end of the 3rd osmotic pump study, mice were given a 0.75 U/kg insulin challenge and culled after 15 min. The liver, white adipose tissue (WAT) and skeletal muscle were dissected out and snap frozen in liquid nitrogen and stored at −70 °C until analysis.
50−100 mg pieces of WAT, liver and skeletal muscle were homogenised in MSD (Rockville, MD, USA) lysis buffer with various protease inhibitors supplied by MSD and Qiagen metal bead. Homogenised tissue was allowed to rest at 4 °C for 2 h to allow protein solubilisation and then centrifuged (10 000 g, 10 min, 4 °C). Supernatants were aspirated and stored at -70 °C till analysis. Protein content of all homogenised tissue samples was assessed using a Pierce BCA protein assay kit (Thermo Fisher Scientific) according to the manufacturer’s instructions.
Tissue homogenates were diluted in MSD lysis buffer to the same protein content. Total and phosphorylated-AKT (pAKT) were quantified using respective kits from MSD (total-AKT kit catalogue number: K150MOD-1, pAKT (Ser473) kit catalogue number: K151CAD-1) according to the manufacturer’s instructions.
Fig. 8 Phosphorylated-AKT (pAKT) expressed as a percentage of total AKT in liver (A), skeletal muscle (B) and white adipose tissue (WAT) (C) 15 min after a 0.75 U/kg insulin challenge. (D) Body weights vs pAKT as a percentage of total-AKT. […]

lean mice = assay: 1st osmotic pump study: 28-day infusion, body weight, food intake, weekly IP GTT; format: in vivo, mouse; details: n = 5/group
Protocol: Three studies were performed to assess the in vivo efficacy of the ChgA 435−462a and Gast p59−79 (see Figure legends for specifics of each study). Peptides were administered by osmotic pumps implanted subcutaneously under isoflurane anaesthesia. Food intake was assessed using BioDaq (Research Diets) automated food intake cages. Intraperitoneal (IP) glucose tolerance tests (GTT) were performed by administering a 2 g/kg challenge of glucose and measuring blood glucose levels from the tail vein whereas oral GTT (OGTT) were performed using 1 g/kg glucose challenge. Insulin tolerance tests (ITT) were performed by administering a 0.75 U/kg dose of insulin IP to the mice and assessing blood glucose levels at 15, 30, 45, 60, 90 and 120 min post-insulin challenge.
Fig. 7 In vivo characterisation of novel peptides. (A-C) PK data of ChgA 435-462a, Gast p59-79, Sst 25-36. (D-G) Data from 1st osmotic pump study where n = 5/group. […] Body weights (E) and food intake (D) were measured throughout the study. Week 0 and day -7 represent baseline data prior to treatment onset. Glucose tolerance was assessed every 7 days after surgery via an IP GTT using a 2 g/kg glucose challenge. […] Statistical analysis performed using Kruskal-Wallis test with post-hoc Dunn tests. […] Mice singly housed and infused with either Gast p59-79 or vehicle for 7 days. […] Mice singly housed and infused with either Gast p59-79 or vehicle for 7 days. 2 g/kg IP GTT performed on day 7 (J, K) and 1 g/kg OGTT performed on day 14 (L, M). 0.75 U/kg ITT performed on day 21 (N, O). Body weights vs AUC during ITT on day 21 (P). Error bars represent SD. *P < 0.05, **p < 0.01, ***p < 0.005.

AUC ([1]; both sexes, C57BL/6 N J, iv, 1 mg/kg, plasma LC–MS/MS): 503 ng·h/mL
Clearance ([1]; both sexes, C57BL/6 N J, plasma, iv, i.v., 1 mg/kg, read-out: Clearance (converted)): 0.332
AUC ([1]; both sexes, C57BL/6 N J, sc, 10 mg/kg, plasma LC–MS/MS): 558 ng·h/mL
half-life ([1]; both sexes, C57BL/6 N J, sc, administered subcutaneously, plasma LC–MS/MS): 18.1 min
mass delivery rate required to obtain steady state concentration of 1 nM ([1]; estimated from PK data (SAAM II model), osmotic pump infusion): 0.77 mg/kg/day
Clearance ([1]; s.c., 10 mg/kg): 0.298 mL/min/kg
Bioavailability (%) ([1]; s.c., 10 mg/kg, plasma LC–MS/MS): 110%
bioavailability when administered subcutaneously (in words) ([1]; s.c., text summary of table S1): good bioavailability
SMILES: CC[C@H](C)[C@H](NC(=O)[C@H](Cc1ccccc1)NC(=O)[C@H](Cc1c[nH]cn1)NC(=O)[C@H](CCC(N)=O)NC(=O)[C@@H]1CCCN1C(=O)CNC(=O)[C@H](CCC(N)=O)NC(=O)[C@@H]1CCCN1C(=O)CNC(=O)[C@H](CC(C)C)NC(=O)[C@@H]1CCC(=O)N1)C(=O)N[C@@H](C)C(=O)N[C@@H](CC(=O)O)C(=O)N[C@@H](CC(C)C)C(=O)N[C@@H](CO)C(=O)N[C@@H](CCCCN)C(=O)N[C@@H](CCCCN)C(=O)N[C@@H](CCC(N)=O)C(=O)N[C@@H](CCCNC(=N)N)C(=O)N1CCC[C@H]1C(=O)N[C@@H](CCCNC(=N)N)C(=O)O [Gast p59−79] ([pGlu]LGPQGPQHFIADLSKKQRPR-OH; C-terminus assumed)
percentage of pAKT (of total AKT) in liver, WAT and skeletal muscle [2]: No effect
food intake compared with controls (lean mice; 6-8 week old male mice, BioDAQ cages, osmotic pump 28 days, ChgA 435-462a 0.3, Gast p59-79 0.8, exenatide 0.03 mg/kg/day, vs PBS): No significant differences
body weight compared with controls (lean mice; 6-8 week old male mice, osmotic pump 28 days, ChgA 435-462a 0.3, Gast p59-79 0.8, exenatide 0.03 mg/kg/day, vs PBS): No significant differences
IP GTT AUC analyses (lean mice; lean male mice, Gast p59-79 0.8 mg/kg/day, IP GTT 2 g/kg, Kruskal-Wallis with Dunn tests): did not reach significance
glucose tolerance in IP GTT (blood glucose) (lean mice; lean male mice, osmotic pump 28 days, IP GTT 2 g/kg glucose every 7 days, ChgA 435-462a 0.3, Gast p59-79 0.8, exenatide 0.03 mg/kg/day, vs PBS): Small but significant improvements in individual time point glucose levels
